{
  "source": "patent US20240270750A1",
  "about": "“IMIDAZOLE-CONTAINING INHIBITORS OF ALK2 KINASE” (BioCryst Pharmaceuticals, Inc., priority 2021, published 2024)",
  "data": [
    {"biological_target": "T1, ALK2 (Homo sapiens, UniProt Q04771)", "T1 construct": "purchased ThermoFisher Scientific (Life Technologies)", "T1 sequence (Q04771 21-509)": "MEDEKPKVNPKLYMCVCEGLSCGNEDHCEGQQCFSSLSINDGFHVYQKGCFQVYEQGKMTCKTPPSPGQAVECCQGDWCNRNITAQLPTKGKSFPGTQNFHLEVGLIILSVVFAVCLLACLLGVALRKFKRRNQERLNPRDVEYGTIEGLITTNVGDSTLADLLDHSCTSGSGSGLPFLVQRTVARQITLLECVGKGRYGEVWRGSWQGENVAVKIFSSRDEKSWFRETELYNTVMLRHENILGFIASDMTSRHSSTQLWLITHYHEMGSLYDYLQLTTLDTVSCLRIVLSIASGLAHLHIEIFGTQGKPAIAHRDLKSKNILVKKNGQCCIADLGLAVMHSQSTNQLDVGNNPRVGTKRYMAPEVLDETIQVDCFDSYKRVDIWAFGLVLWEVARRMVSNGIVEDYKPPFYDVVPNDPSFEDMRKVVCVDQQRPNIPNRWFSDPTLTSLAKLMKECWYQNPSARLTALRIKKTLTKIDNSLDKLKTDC", "assay": "LanthaScreen Eu Kinase Binding Assay, ALK2 inhibition", "details": "1 micromolar concentration", "procedure": "Biochemical assays to measure the inhibitory effects of the compounds were performed by ThermoFisher Scientific (Life Technologies). ALK2 inhibition was tested using LanthaScreen™ Eu Kinase Binding Assay screening protocol.", "units": {"inhibition at 1 µM": "%"}, "values": [
      {"compound": "COc1cc(-n2cnc(Nc3nc(C(C)C)nc4c3cnn4-c3c(F)cccc3F)c2)cc(OC)c1OC", "note": "[Compound 43d, 1-(2,6-difluorophenyl)-6-isopropyl-N-(1-(3,4,5-trimethoxyphenyl)-1H-imidazol-4-yl)-1H-pyrazolo[3,4-d]pyrimidin-4-amine]", "inhibition at 1 µM": "> 50"},
      {"compound": "COc1cc(-n2cnc(Nc3nc(C(C)CCN(C)C)nc4c3cnn4C(C)C)c2)cc(OC)c1OC", "note": "(stereo not drawn) [Compound 100b, 6-(4-(dimethylamino)butan-2-yl)-1-isopropyl-N-(1-(3,4,5-trimethoxyphenyl)-1H-imidazol-4-yl)-1H-pyrazolo[3,4-d]pyrimidin-4-amine]", "inhibition at 1 µM": "> 50"},
      {"compound": "COc1ccc2c(Nc3cn(-c4cc(OC)c(OC)c(OC)c4)cn3)nc(C(C)C)nc2c1", "note": "[Compound 75a, 2-isopropyl-7-methoxy-N-(1-(3,4,5-trimethoxyphenyl)-1H-imidazol-4-yl)quinazolin-4-amine]", "inhibition at 1 µM": "> 50"},
      {"compound": "COc1cc(-n2cnc(Nc3nc(C(C)CC(=O)NCCO)nc4c3cnn4C(C)C)c2)cc(OC)c1OC", "note": "(stereo not drawn) [Compound 109a, N-(2-hydroxyethyl)-3-(1-isopropyl-4-((1-(3,4,5-trimethoxyphenyl)-1H-imidazol-4-yl)amino)-1H-pyrazolo[3,4-d]pyrimidin-6-yl)butanamide]", "inhibition at 1 µM": "< 50"},
      {"compound": "C=C(C)c1nc(Nc2cn(-c3cc(OC)c(OC)c(OC)c3)cn2)c2cc(OC)c(OC)cc2n1", "note": "[Compound 65c, 6,7-dimethoxy-2-(prop-1-en-2-yl)-N-(1-(3,4,5-trimethoxyphenyl)-1H-imidazol-4-yl)quinazolin-4-amine]", "inhibition at 1 µM": "< 50"},
      {"compound": "COc1cc(-n2cnc(Nc3nc(C4CCCCC4)c4cnn(C(C)C)c4n3)c2)cc(OC)c1OC", "note": "[Compound 12b, 4-cyclohexyl-1-isopropyl-N-(1-(3,4,5-trimethoxyphenyl)-1H-imidazol-4-yl)-1H-pyrazolo[3,4-d]pyrimidin-6-amine]", "inhibition at 1 µM": "> 50"},
      {"compound": "C=C(C)c1nc(Nc2cn(-c3cc(OC)c(OC)c(OC)c3)cn2)c2ccn(C(C)C)c2n1", "note": "[Compound 97c, 7-isopropyl-2-(prop-1-en-2-yl)-N-(1-(3,4,5-trimethoxyphenyl)-1H-imidazol-4-yl)-7H-pyrrolo[2,3-d]pyrimidin-4-amine]", "inhibition at 1 µM": "> 50"},
      {"compound": "CCCC(C)n1ncc2c(Nc3cn(-c4cc(OC)c(OC)c(OC)c4)cn3)nc(C(C)C)nc21", "note": "(stereo not drawn) [Compound 15e, 6-isopropyl-1-(pentan-2-yl)-N-(1-(3,4,5-trimethoxyphenyl)-1H-imidazol-4-yl)-1H-pyrazolo[3,4-d]pyrimidin-4-amine]", "inhibition at 1 µM": "> 50"},
      {"compound": "COc1cc(-n2cnc(Nc3nc(CC4CC4)nc4c3cnn4CC3CC3)c2)cc(OC)c1OC", "note": "[Compound 121f, 1,6-bis(cyclopropylmethyl)-N-(1-(3,4,5-trimethoxyphenyl)-1H-imidazol-4-yl)-1H-pyrazolo[3,4-d]pyrimidin-4-amine]", "inhibition at 1 µM": "> 50"},
      {"compound": "CCCC(C)c1nc(Nc2cn(-c3cc(OC)c(OC)c(OC)c3)cn2)c2cnn(C(C)C)c2n1", "note": "(stereo not drawn) [Compound 29a, 1-isopropyl-6-(pentan-2-yl)-N-(1-(3,4,5-trimethoxyphenyl)-1H-imidazol-4-yl)-1H-pyrazolo[3,4-d]pyrimidin-4-amine]", "inhibition at 1 µM": "> 50"},
      {"compound": "COc1cc(-n2cnc(Nc3nc(C4CCOC4)nc4c3cnn4C(C)C)c2)cc(OC)c1OC", "note": "(stereo not drawn) [Compound 45e, 1-isopropyl-6-(tetrahydrofuran-3-yl)-N-(1-(3,4,5-trimethoxyphenyl)-1H-imidazol-4-yl)-1H-pyrazolo[3,4-d]pyrimidin-4-amine]", "inhibition at 1 µM": "> 50"},
      {"compound": "COc1cc(-n2cnc(Nc3nc(C(C)C)nc4c3ccn4C(C)C)c2)cc(OC)c1OC", "note": "[Compound 98a, 2,7-diisopropyl-N-(1-(3,4,5-trimethoxyphenyl)-1H-imidazol-4-yl)-7H-pyrrolo[2,3-d]pyrimidin-4-amine]", "inhibition at 1 µM": "> 50"},
      {"compound": "COc1cc(-n2cnc(Nc3nc(C(C)C)nc4c3cnn4C(C)(C)C)c2)cc(OC)c1OC", "note": "[Compound 2d, 1-(tert-butyl)-6-isopropyl-N-(1-(3,4,5-trimethoxyphenyl)-1H-imidazol-4-yl)-1H-pyrazolo[3,4-d]pyrimidin-4-amine]", "inhibition at 1 µM": "> 50"},
      {"compound": "COc1cc(-n2cnc(Nc3nc(C(C)C)nc4ccc(F)cc34)c2)cc(OC)c1OC", "note": "[Compound 99a, 6-fluoro-2-isopropyl-N-(1-(3,4,5-trimethoxyphenyl)-1H-imidazol-4-yl)quinazolin-4-amine]", "inhibition at 1 µM": "> 50"},
      {"compound": "CCn1ncc2c(Nc3cn(-c4cc(OC)c(OC)c(OC)c4)cn3)nc(CC3CC3)nc21", "note": "[Compound 124e, 6-(cyclopropylmethyl)-1-ethyl-N-(1-(3,4,5-trimethoxyphenyl)-1H-imidazol-4-yl)-1H-pyrazolo[3,4-d]pyrimidin-4-amine]", "inhibition at 1 µM": "> 50"},
      {"compound": "C=C(C)c1nc(Nc2cn(-c3cc(OC)c(OC)c(OC)c3)cn2)c2sccc2n1", "note": "[Compound 51c, 2-(prop-1-en-2-yl)-N-(1-(3,4,5-trimethoxyphenyl)-1H-imidazol-4-yl)thieno[3,2-d]pyrimidin-4-amine]", "inhibition at 1 µM": "> 50"},
      {"compound": "C=C(C)c1nc(Nc2cn(-c3cc(OC)c(OC)c(OC)c3)cn2)c2ncsc2n1", "note": "[Compound 63c, 5-(prop-1-en-2-yl)-N-(1-(3,4,5-trimethoxyphenyl)-1H-imidazol-4-yl)thiazolo[5,4-d]pyrimidin-7-amine]", "inhibition at 1 µM": "> 50"},
      {"compound": "COc1cc(-n2cnc(Nc3nc(C(C)(C)C)c4cnn(C(C)C)c4n3)c2)cc(OC)c1OC", "note": "[Compound 9b, 4-(tert-butyl)-1-isopropyl-N-(1-(3,4,5-trimethoxyphenyl)-1H-imidazol-4-yl)-1H-pyrazolo[3,4-d]pyrimidin-6-amine]", "inhibition at 1 µM": "> 50"},
      {"compound": "C=C(C)c1nc(Nc2cn(-c3cc(OC)c(OC)c(OC)c3)cn2)nc2ccccc12", "note": "[Compound 55c, 4-(prop-1-en-2-yl)-N-(1-(3,4,5-trimethoxyphenyl)-1H-imidazol-4-yl)quinazolin-2-amine]", "inhibition at 1 µM": "> 50"},
      {"compound": "COCCc1nc(Nc2cn(-c3cc(OC)c(OC)c(OC)c3)cn2)c2cnn(C(C)C)c2n1", "note": "[Compound 30e, 1-isopropyl-6-(2-methoxyethyl)-N-(1-(3,4,5-trimethoxyphenyl)-1H-imidazol-4-yl)-1H-pyrazolo[3,4-d]pyrimidin-4-amine]", "inhibition at 1 µM": "> 50"},
      {"compound": "C=C(C)c1nc2c(c(Nc3cn(-c4cc(OC)c(OC)c(OC)c4)cn3)n1)CCN(C(=O)OC(C)(C)C)C2", "note": "[Compound 76c, tert-butyl 2-(prop-1-en-2-yl)-4-((1-(3,4,5-trimethoxyphenyl)-1H-imidazol-4-yl)amino)-5,6-dihydropyrido[3,4-d]pyrimidine-7 (8H)-carboxylate]", "inhibition at 1 µM": "< 50"},
      {"compound": "C=C(C)c1nc(Nc2cn(-c3cc(OC)c(OC)c(OC)c3)cn2)c2sc(C)cc2n1", "note": "[Compound 84c, 6-methyl-2-(prop-1-en-2-yl)-N-(1-(3,4,5-trimethoxyphenyl)-1H-imidazol-4-yl)thieno[3,2-d]pyrimidin-4-amine]", "inhibition at 1 µM": "> 50"},
      {"compound": "COc1cc(-n2cnc(Nc3nc(C4CCN(C)CC4)nc4c3cnn4C(C)C)c2)cc(OC)c1OC", "note": "[Compound 48a, 1-isopropyl-6-(1-methylpiperidin-4-yl)-N-(1-(3,4,5-trimethoxyphenyl)-1H-imidazol-4-yl)-1H-pyrazolo[3,4-d]pyrimidin-4-amine]", "inhibition at 1 µM": "> 50"},
      {"compound": "COc1cc(-n2cnc(Nc3nc(C4CCN(C)C4)nc4c3cnn4C(C)C)c2)cc(OC)c1OC", "note": "(stereo not drawn) [Compound 101b, 1-isopropyl-6-(1-methylpyrrolidin-3-yl)-N-(1-(3,4,5-trimethoxyphenyl)-1H-imidazol-4-yl)-1H-pyrazolo[3,4-d]pyrimidin-4-amine]", "inhibition at 1 µM": "> 50"},
      {"compound": "COc1cc(-n2cnc(Nc3nc(C(F)(F)F)nc4[nH]ncc34)c2)cc(OC)c1OC", "note": "[Compound 25b, 6-(trifluoromethyl)-N-(1-(3,4,5-trimethoxyphenyl)-1H-imidazol-4-yl)-1H-pyrazolo[3,4-d]pyrimidin-4-amine]", "inhibition at 1 µM": "> 50"},
      {"compound": "COc1cc(-n2cnc(Nc3nc(C4CC4)nc4c3CCC4)c2)cc(OC)c1OC", "note": "[Compound 115b, 2-cyclopropyl-N-(1-(3,4,5-trimethoxyphenyl)-1H-imidazol-4-yl)-6,7-dihydro-5H-cyclopenta[d]pyrimidin-4-amine]", "inhibition at 1 µM": "> 50"},
      {"compound": "COc1cc(-n2cnc(Nc3nc(C(C)C)nc4c3cnn4-c3ccccc3)c2)cc(OC)c1OC", "note": "[Compound 39d, 6-isopropyl-1-phenyl-N-(1-(3,4,5-trimethoxyphenyl)-1H-imidazol-4-yl)-1H-pyrazolo[3,4-d]pyrimidin-4-amine]", "inhibition at 1 µM": "> 50"},
      {"compound": "COc1cc(-n2cnc(Nc3nc(C(C)C)nc4c3CCN(C(=O)OC(C)(C)C)C4)c2)cc(OC)c1OC", "note": "[Compound 77a, tert-butyl 2-isopropyl-4-((1-(3,4,5-trimethoxyphenyl)-1H-imidazol-4-yl)amino)-5,6-dihydropyrido[3,4-d]pyrimidine-7 (8H)-carboxylate]", "inhibition at 1 µM": "> 50"},
      {"compound": "CCC(C)c1nc(Nc2cn(-c3cc(OC)c(OC)c(OC)c3)cn2)c2cnn(C(C)C)c2n1", "note": "(stereo not drawn) [Compound 33d, 6-(sec-butyl)-1-isopropyl-N-(1-(3,4,5-trimethoxyphenyl)-1H-imidazol-4-yl)-1H-pyrazolo[3,4-d]pyrimidin-4-amine]", "inhibition at 1 µM": "> 50"},
      {"compound": "COc1cc(-n2cnc(Nc3nc(C(C)C)nc4c3cnn4C3CC3)c2)cc(OC)c1OC", "note": "[Compound 14f, 1-cyclopropyl-6-isopropyl-N-(1-(3,4,5-trimethoxyphenyl)-1H-imidazol-4-yl)-1H-pyrazolo[3,4-d]pyrimidin-4-amine]", "inhibition at 1 µM": "> 50"}
    ]}
  ]
}
